Like-named read-outs stand apart in the source and are kept apart here.
How the values were obtained:
Test in all cases: biochemical
Design in all cases: Reaction Biology 371-kinase panel at Km ATP, per cent enzyme activity relative to DMSO, single dose in duplicate
Settings in all cases: duplicate measurements, Km ATP
[1] = target: T1, CK1G3 (Homo sapiens, UniProt Q9Y6M4)
T1 construct: gene CSNK1G3
Procedure, shortened: (§1)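 Compound screened at 300 nM in vitro across a 371-kinase panel. Enzyme activity expressed as % of DMSO controls. IC50 values came from sigmoidal variable-slope dose-response fits with the bottom fixed at 0.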

[2] = target: TTBK2 (Homo sapiens, UniProt Q6IQ55)
TTBK2, sequence (Q6IQ55 whole entry): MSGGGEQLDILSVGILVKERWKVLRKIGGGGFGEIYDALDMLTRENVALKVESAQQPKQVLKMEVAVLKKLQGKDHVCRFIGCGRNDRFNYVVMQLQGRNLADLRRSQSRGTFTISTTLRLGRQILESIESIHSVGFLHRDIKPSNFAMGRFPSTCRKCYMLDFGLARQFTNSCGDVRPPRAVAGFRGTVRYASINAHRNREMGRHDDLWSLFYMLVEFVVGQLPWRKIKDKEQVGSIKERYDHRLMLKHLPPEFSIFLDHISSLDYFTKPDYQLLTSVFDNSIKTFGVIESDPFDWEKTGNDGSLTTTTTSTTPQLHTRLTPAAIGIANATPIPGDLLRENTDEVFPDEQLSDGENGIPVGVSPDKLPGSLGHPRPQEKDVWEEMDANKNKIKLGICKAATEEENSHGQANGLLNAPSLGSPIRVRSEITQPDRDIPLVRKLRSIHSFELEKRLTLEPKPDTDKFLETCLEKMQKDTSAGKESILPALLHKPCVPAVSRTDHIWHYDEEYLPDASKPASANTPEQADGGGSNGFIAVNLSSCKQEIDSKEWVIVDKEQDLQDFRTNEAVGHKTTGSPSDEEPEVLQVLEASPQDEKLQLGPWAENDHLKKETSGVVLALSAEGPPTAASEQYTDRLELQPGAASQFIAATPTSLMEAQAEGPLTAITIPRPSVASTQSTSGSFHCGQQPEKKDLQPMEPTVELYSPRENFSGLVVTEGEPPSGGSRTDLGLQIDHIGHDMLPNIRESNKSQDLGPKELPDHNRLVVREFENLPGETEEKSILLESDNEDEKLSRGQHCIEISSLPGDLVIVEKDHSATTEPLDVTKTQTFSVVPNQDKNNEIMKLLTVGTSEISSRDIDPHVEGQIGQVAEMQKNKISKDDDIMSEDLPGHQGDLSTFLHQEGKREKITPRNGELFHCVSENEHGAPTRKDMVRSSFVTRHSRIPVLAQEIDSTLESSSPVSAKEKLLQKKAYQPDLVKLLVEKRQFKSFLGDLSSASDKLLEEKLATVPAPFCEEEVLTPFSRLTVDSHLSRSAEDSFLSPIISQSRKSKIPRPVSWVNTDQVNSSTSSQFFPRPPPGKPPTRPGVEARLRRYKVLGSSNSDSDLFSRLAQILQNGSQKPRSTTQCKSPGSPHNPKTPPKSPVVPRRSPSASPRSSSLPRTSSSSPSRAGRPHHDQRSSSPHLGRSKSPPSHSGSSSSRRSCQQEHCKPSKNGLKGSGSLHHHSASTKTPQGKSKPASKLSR
Procedure, shortened: as §1

[3] = target: T2, Aurora A (Homo sapiens, UniProt O14965)
T2 construct: gene AURKA
T2 sequence (O14965 1-403): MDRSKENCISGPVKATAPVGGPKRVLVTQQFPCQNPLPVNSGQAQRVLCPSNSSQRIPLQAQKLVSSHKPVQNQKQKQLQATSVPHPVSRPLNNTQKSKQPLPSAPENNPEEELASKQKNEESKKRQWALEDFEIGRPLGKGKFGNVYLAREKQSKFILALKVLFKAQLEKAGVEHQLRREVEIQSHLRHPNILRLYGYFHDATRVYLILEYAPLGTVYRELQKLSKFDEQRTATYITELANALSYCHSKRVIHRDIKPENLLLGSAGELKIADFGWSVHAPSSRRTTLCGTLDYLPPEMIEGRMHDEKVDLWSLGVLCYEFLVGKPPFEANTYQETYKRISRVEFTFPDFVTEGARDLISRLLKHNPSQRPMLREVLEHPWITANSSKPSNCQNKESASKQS
Procedure, shortened: as §1

[4] = target: CAMK2a (Homo sapiens, UniProt Q9UQM7)
CAMK2a, sequence (Q9UQM7 whole entry): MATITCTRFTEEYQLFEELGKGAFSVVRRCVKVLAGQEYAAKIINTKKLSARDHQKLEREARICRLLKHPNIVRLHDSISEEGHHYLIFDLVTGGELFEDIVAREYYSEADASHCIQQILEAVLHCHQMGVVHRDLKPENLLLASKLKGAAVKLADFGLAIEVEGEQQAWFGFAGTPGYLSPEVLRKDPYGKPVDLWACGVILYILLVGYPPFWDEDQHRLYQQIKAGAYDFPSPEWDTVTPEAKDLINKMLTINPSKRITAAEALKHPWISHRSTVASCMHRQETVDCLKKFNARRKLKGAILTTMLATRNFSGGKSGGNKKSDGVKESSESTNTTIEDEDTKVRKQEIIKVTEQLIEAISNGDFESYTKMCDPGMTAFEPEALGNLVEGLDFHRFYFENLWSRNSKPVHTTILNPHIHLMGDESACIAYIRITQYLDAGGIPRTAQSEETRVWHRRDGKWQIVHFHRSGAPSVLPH
Procedure, shortened: as §1

[5] = target: DDR2 (Homo sapiens, UniProt Q16832)
Procedure, shortened: as §1

[6] = target: CDK6/cyclin D3 (Homo sapiens, UniProt Q00534)
Procedure, shortened: as §1

[7] = target: MLK2/MAP3K10 (Homo sapiens, UniProt Q02779)
Procedure, shortened: as §1

[8] = target: T3, CAMK1b (Homo sapiens, UniProt Q6P2M8)
T3 construct: gene PNCK
Procedure, shortened: as §1

[9] = target: PKCmu/PRKD1 (Homo sapiens, UniProt Q15139)
Procedure, shortened: as §1

[10] = target: IKKb/IKBKB (Homo sapiens, UniProt O14920)
Procedure, shortened: as §1

[11] = target: ERN1/IRE1 (Homo sapiens, UniProt O75460)
ERN1/IRE1, sequence (O75460 whole entry): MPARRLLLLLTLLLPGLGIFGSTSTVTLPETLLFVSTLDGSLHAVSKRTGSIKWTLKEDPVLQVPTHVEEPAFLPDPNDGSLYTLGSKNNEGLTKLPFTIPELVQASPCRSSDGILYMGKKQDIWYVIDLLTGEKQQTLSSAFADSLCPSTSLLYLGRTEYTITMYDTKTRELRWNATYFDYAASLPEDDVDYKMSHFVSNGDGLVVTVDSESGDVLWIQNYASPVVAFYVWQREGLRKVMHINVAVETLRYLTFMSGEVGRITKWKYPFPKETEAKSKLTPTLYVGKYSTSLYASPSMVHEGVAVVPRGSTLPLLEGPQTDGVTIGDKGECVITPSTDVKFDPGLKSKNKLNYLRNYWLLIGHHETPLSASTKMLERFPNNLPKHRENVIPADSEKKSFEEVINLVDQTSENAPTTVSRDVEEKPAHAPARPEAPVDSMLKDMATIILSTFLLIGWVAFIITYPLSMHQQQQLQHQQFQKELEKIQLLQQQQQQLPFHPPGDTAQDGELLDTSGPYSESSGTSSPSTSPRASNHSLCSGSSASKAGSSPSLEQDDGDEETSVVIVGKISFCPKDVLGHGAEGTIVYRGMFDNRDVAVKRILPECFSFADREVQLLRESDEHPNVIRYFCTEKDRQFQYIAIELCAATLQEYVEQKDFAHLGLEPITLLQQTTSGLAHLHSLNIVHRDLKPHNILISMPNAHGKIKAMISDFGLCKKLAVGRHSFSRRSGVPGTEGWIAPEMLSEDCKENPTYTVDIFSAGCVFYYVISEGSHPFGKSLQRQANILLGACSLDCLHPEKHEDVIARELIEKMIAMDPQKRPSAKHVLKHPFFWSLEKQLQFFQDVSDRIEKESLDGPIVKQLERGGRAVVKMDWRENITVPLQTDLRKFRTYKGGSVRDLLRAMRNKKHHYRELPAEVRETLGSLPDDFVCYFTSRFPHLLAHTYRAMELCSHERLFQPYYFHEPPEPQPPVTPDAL
Procedure, shortened: as §1

[12] = target: PDGFRa (Homo sapiens, UniProt P16234)
PDGFRa, sequence (P16234 whole entry): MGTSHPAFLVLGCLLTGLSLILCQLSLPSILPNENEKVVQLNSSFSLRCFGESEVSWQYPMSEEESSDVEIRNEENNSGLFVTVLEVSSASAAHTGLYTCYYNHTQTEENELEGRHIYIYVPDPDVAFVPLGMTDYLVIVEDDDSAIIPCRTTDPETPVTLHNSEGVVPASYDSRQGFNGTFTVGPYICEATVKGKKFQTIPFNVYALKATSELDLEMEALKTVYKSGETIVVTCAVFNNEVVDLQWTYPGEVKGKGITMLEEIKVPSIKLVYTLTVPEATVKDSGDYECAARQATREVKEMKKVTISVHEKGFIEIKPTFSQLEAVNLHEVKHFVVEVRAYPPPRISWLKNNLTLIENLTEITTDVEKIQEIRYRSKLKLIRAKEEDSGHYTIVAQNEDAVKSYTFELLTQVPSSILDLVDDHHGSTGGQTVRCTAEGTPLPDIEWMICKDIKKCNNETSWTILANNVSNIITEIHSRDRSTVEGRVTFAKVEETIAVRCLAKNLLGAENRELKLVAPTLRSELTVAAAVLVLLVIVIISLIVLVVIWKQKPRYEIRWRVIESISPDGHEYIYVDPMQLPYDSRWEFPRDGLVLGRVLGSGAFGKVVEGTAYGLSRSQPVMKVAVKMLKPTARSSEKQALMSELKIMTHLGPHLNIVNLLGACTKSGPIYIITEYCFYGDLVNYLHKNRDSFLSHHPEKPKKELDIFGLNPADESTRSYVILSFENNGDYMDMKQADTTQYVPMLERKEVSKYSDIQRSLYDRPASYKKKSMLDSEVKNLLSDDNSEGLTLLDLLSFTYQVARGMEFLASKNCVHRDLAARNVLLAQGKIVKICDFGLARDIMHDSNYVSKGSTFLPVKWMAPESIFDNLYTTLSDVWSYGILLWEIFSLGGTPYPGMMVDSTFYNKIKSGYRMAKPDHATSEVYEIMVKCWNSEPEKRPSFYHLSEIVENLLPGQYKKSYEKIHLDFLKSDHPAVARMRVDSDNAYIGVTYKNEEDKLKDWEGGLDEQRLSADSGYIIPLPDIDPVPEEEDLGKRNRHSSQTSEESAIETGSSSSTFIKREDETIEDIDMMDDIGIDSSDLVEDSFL
Procedure, shortened: as §1

[13] = target: PAK5 (Homo sapiens, UniProt Q9P286)
PAK5, sequence (Q9P286 whole entry): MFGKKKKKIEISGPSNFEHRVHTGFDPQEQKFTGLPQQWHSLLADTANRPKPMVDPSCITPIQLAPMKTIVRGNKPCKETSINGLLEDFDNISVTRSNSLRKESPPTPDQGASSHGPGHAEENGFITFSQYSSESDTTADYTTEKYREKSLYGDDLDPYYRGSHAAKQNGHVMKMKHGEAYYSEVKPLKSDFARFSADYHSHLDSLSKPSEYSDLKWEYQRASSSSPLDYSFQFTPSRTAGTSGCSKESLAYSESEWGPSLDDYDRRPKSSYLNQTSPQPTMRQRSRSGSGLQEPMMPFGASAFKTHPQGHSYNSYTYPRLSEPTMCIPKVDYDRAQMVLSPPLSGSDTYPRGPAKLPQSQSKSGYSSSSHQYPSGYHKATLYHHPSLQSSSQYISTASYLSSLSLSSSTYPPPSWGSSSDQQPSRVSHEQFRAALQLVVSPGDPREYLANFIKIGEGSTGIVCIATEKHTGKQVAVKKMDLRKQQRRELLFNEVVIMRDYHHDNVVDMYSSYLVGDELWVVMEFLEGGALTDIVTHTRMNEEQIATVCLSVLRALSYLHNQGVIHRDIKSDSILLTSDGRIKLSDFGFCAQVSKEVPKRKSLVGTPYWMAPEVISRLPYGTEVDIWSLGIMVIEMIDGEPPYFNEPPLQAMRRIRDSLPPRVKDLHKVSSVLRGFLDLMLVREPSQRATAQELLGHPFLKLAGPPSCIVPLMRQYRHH
Procedure, shortened: as §1

[14] = target: PKN1/PRK1 (Homo sapiens, UniProt Q16512)
Procedure, shortened: as §1

[15] = target: MARK1 (Homo sapiens, UniProt Q9P0L2)
Procedure, shortened: as §1

[16] = target: KSR1 (Homo sapiens, UniProt Q8IVT5)
Procedure, shortened: as §1

[17] = target: MINK/MINK1 (Homo sapiens, UniProt Q8N4C8)
Procedure, shortened: as §1

[18] = read-out: % Enzyme Activity (relative to DMSO controls) / TP-0005801 (0.3µM) / Data 1
[19] = read-out: % Enzyme Activity (relative to DMSO controls) / TP-0005801 (0.3µM) / Data 2

T1 sequence (Q9Y6M4 whole entry): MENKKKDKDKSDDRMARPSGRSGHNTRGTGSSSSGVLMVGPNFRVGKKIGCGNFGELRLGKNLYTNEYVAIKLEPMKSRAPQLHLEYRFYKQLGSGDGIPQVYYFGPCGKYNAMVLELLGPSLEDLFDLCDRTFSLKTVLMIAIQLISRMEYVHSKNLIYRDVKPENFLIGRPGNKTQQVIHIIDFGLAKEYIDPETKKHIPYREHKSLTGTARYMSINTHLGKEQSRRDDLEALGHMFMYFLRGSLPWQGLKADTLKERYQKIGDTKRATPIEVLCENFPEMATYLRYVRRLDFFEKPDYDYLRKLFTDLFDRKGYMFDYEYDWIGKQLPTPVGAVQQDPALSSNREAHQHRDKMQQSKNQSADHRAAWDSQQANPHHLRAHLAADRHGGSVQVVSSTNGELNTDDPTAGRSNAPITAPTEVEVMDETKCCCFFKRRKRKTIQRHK

remaining activity at 0.3 µM [1, 18]: 94.7%
remaining activity at 0.3 µM [1, 19]: 93.6%
remaining activity at 0.3 µM [2, 18]: 90.3%
remaining activity at 0.3 µM [2, 19]: 83.1%
remaining activity at 0.3 µM [3, 18]: 101%
remaining activity at 0.3 µM [3, 19]: 99.6%
remaining activity at 0.3 µM [4, 18]: 8.85%
remaining activity at 0.3 µM [4, 19]: 8.25%
remaining activity at 0.3 µM [5, 18]: 77.1%
remaining activity at 0.3 µM [5, 19]: 75.8%
remaining activity at 0.3 µM [6, 18]: 103%
remaining activity at 0.3 µM [6, 19]: 101%
remaining activity at 0.3 µM [7, 18]: 87%
remaining activity at 0.3 µM [7, 19]: 85.9%
remaining activity at 0.3 µM [8, 18]: 119%
remaining activity at 0.3 µM [8, 19]: 114%
remaining activity at 0.3 µM [9, 18]: 67.7%
remaining activity at 0.3 µM [9, 19]: 67.3%
remaining activity at 0.3 µM [10, 18]: 104%
remaining activity at 0.3 µM [10, 19]: 102%
remaining activity at 0.3 µM [11, 18]: 83%
remaining activity at 0.3 µM [11, 19]: 82.7%
remaining activity at 0.3 µM [12, 18]: 84.6%
remaining activity at 0.3 µM [12, 19]: 84.5%
remaining activity at 0.3 µM [13, 18]: 86.5%
remaining activity at 0.3 µM [13, 19]: 85.3%
remaining activity at 0.3 µM [14, 18]: 91.8%
remaining activity at 0.3 µM [14, 19]: 90.3%
remaining activity at 0.3 µM [15, 18]: 101%
remaining activity at 0.3 µM [15, 19]: 99.2%
remaining activity at 0.3 µM [16, 18]: 99.2%
remaining activity at 0.3 µM [16, 19]: 97.6%
remaining activity at 0.3 µM [17, 18]: 95.6%
remaining activity at 0.3 µM [17, 19]: 89.2%
Compound: COc1cc(N2CCN(C)CC2)c(C)cc1Nc1ncc(Br)c(Nc2cccnc2N(C)C)n1 [TP-5801]

— article PMC8429728, “TNK1 is a ubiquitin-binding and 14-3-3-regulated kinase that can be targeted to block tumor growth” (Nature Communications, 2021)
